Assay results reported in ChEMBL document CHEMBL1150447, “Nitrogen and sulfur analogues of the secoCI alkylating agent: Synthesis and cytotoxicity” (Bioorg Med Chem Lett, 1996).

Tests used:
Format in all cases: functional, cell-based
CHO-AA8 = assay: Compound was evaluated for cytotoxicity against CHO AA8 cell lines for 4 hr at pH-7.4; details: Cricetulus griseus, CHO-AA8, 4 h
EMT6 = assay: Compound was evaluated for cytotoxicity against murine mammary carcinoma EMT6 cell lines for 4 hr at pH-7.4; details: Mus musculus, EMT6, 4 h
UV4 = assay: Compound was evaluated for cytotoxicity against CHO UV4 cell lines for 4 hr at pH-7.4; details: Cricetulus griseus, UV4, 4 h

SMILES | IC50 (CHO-AA8) [µM] | IC50 (EMT6) [µM] | IC50 (UV4) [µM]
CNc1ccc2c(c1)N(C(=O)c1cc3cc(OC)c(OC)c(OC)c3[nH]1)CC2CCl (configuration not stated) | 0.22 | 0.11 | 0.055
CS(=O)(=O)N1CC(CCl)c2ccc(S)cc21 (configuration not stated) | > 200 | > 200 | 124
CSc1ccc2c(c1)N(S(C)(=O)=O)CC2CCl (configuration not stated) | > 200 | > 200 | > 200
CNc1ccc2c(c1)N(S(C)(=O)=O)CC2CCl (configuration not stated) | 50 | 13 | 4.1
COc1cc2cc(C(=O)N3CC(CCl)c4ccc(N(C)C)cc43)[nH]c2c(OC)c1OC (configuration not stated) | 0.28 | 0.11 | 0.088
COc1cc2cc(C(=O)N3CC(CCl)c4ccc(N)cc43)[nH]c2c(OC)c1OC (configuration not stated) | 0.32 |  | 0.059
CS(=O)(=O)N1CC(CCl)c2ccc(O)cc21 (configuration not stated) | 20 | 7.7 | 1.9
CS(=O)(=O)N1CC(CCl)c2ccc(SSc3ccc4c(c3)N(S(C)(=O)=O)CC4CCl)cc21 (configuration not stated) | > 50 | > 50 | > 50
CN(C)c1ccc2c(c1)N(S(C)(=O)=O)CC2CCl (configuration not stated) | 72 | 20 | 15
CS(=O)(=O)N1CC(CCl)c2ccc(N)cc21 (configuration not stated) | 158 | 33 | 13
COc1cc2cc(C(=O)N3CC(CCl)c4ccc(O)cc43)[nH]c2c(OC)c1OC (configuration not stated) | 0.0065 | 0.0022 | 0.001
